Measured values reported in EP4813463A2, “TYK2 INHIBITORS AND COMPOSITIONS AND METHODS THEREOF” (Lynk Pharmaceuticals Co. Ltd., priority 2023, dated 2024).
Where two headings read alike, the source gives them in different places.

Experiments:
[1] = biological target: T1, TYK2-JH2 domain (Homo sapiens, UniProt P29597); test: Binding activity test for JH2 domain of TYK2 (Tb-antibody/tracer FRET)
T1 construct: JAK1-JH2 domain or TYK2-JH2 domain enzyme in assay buffer
Method: Binding Activity test for JH2 domain of JAK1 and TYK2 […] Add 8μL/well in echo source plate, echo will add 75nL/well with 3-fold serial dilution for 11 points in assay plate. 75nL DMSO for high control and low control. […] For low control, add 5μL/well assay buffer. And then spin down at 1000rpm and centrifuge for 30 seconds. After enzyme system prepared, add 5μL of Tb-antibody solution into each well of assay plate. Spin down at 1000 rpm and centrifuge for 30sec. After Tb-antibody added, also add 5μL of tracer into the assay plate. Spin down at 1000rpm and centrifuge for 30sec. Incubate for […] at 25°C firstly and then continue to incubate the plate at 4°C overnight. Read by envision in FRET mode. The Luminescence value was recorded by a multi-label reader Envision (PerkinElmer). […] Table 2. IC50 on JH2 domain activity (nM)

[2] = tested on: Ba/F3-FL-TYK2-P760L cells; test: Anti-proliferative assay in engineered Ba/F3 cells (Cell-Titer Glo, 72 h); assay type: cell-based; settings: concentration that causes 50% growth inhibition, read-out: Baf3-FL-T2P760L
Method: Dimerization domain of Tel protein fused with JAK kinase domain was permanently transduced into Ba/F3 cells, whose proliferation is dependent on JAK activity in the absence of IL-3 induction. These engineered Ba/F3-FL-TYK2-P760L cells were used to monitor JAK inhibitory activities of the compounds in the cellular. Ba/F3 cells were cultured in RPMI-1640 (Corning) containing 10% fetal bovine serum. Cells were seeded at 2000/well of white flat bottom 96-well plates. The well containing medium only was used as background control. After 24h growth, cells were treated with compounds. The test compounds were dissolved in DMSO to a stock concentration of 20 mM. 3-fold serially diluted compounds for 9 concentrations with top concentration of 20 µM was added into the each well. The final DMSO concentration was 0.1%. The cells continued to grow at 37°C in 5% CO2 for 72 h after compound treatment. The viability was measured by cellular ATP determination using the Cell-Titer Glo luciferase reagent (Promega). The Luminescence value was recorded by a multi-label reader Envision (PerkinElmer). Inhibition Rate was calculated relative to vehicle (DMSO) treated control wells using following formula: % Inhibition = 100−(RLU_compound−RLU_blank)/(RLU_control−RLU_blank) × 100% [formula] wherein • RLU_compound = the relative light unit of cells treated with test compounds • RLU_blank = the relative light unit of medium with DMSO only • RLU_control = the relative light unit of cells treated with DMSO only
Table 4. Ba/F3-FL-TYK2-P760L Cells IC50 Values of Exemplary Compounds

[3] = JH2 domain enzyme; 60 min at 25°C, then 4°C overnight; read-out: TYK2 JH2 Binding IC50
[4] = Mus musculus, BaF3, 72 h, 72 h compound treatment

T1 sequence (P29597 589-875 limits assumed): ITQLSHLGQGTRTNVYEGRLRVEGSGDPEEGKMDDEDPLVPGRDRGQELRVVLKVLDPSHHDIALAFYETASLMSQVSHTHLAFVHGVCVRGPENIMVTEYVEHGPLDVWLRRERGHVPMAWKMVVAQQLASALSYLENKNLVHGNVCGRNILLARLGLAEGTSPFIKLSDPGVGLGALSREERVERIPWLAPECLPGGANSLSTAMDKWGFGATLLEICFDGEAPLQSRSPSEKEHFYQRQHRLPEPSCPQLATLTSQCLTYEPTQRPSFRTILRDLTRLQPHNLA

SMILES	IC50 ([1]; read-out: TYK2 JH2 Binding IC50; JH2 domain enzyme; 60 min at 25°C, then 4°C overnight) [nM]	IC50 ([2]; Mus musculus, BaF3, 72 h compound treatment) [nM]	IC50 [1, 3] [nM]	IC50 [2, 4] [nM]	IC50 ([2]; 72 h compound treatment) [nM]
[2H]C([2H])([2H])O[C@@H](c1ccc2c(c(Nc3cc(NC(=O)C4CC4)ncc3C(=O)NC)nn2C)c1OC)C(F)(F)F [Example 151, (5)-6-(cyclopropanecarboxamido)-4-((4-methoxy-1-methyl-5-(2,2,2-trifluoro-1-(methoxy-d3)ethyl)-1H-indazol-3-yl)amino)-N-methylnicotinamide]	0.053	0.213	–	–	–
[2H]C([2H])([2H])CC(=O)c1cnc(NC(=O)C2CC2)cc1Nc1nn(C)c2ccc(C#N)c(OC)c12 [Example 127, N-(4-((5-cyano-4-methoxy-1-methyl-1H-indazol-3-yl)amino)-5-(propanoyl-3,3,3-d3)pyridin-2-yl)cyclopropanecarboxamide]	–	–	0.256	52.3	–
COC(=O)c1cnc(NC(=O)C2CC2)cc1Nc1nn(C)c2ccc(Cl)c(OC)c12 [Example 137, Methyl 4-((5-chloro-4-methoxy-1-methyl-1H-indazol-3-yl)amino)-6-(cyclopropanecarboxamido)nicotinate]	–	–	0.377	99.8	–
CCC(F)(F)c1cnc(NC(=O)C2CC2)cc1Nc1nn(C)c2ccc(C(O)C(F)(F)F)c(OC)c12 (single isomer, unassigned) [Example 193B, (R*)-N-(5-(1,1-Difluoropropyl)-4-((4-methoxy-1-methyl-5-(2,2,2-trifluoro-1-hydroxyethyl)-1H-indazol-3-yl)amino)pyridin-2-yl)cyclopropanecarboxamide]	–	–	1.18	–	45
CCC(F)(F)c1cnc(NC(=O)C2CC2)cc1Nc1nn(C)c2ccc(C(O)C(F)(F)F)c(OC)c12 (stereo not drawn) [Example 129, N-(5-(1,1-difluoropropyl)-4-((4-methoxy-1-methyl-5-(2,2,2-trifluoro-1-hydroxyethyl)-1H-indazol-3-yl)amino)pyridin-2-yl)cyclopropanecarboxamide]	–	–	0.466	1.41	–
[2H]C([2H])([2H])NC(=O)c1nnc(NC(=O)C2CC2)cc1Nc1nn(C)c2ccc([C@H](OC([2H])([2H])[2H])C(F)(F)F)c(OC)c12 [Example 135, (S)-6-(cyclopropanecarboxamido)-4-((4-methoxy-1-methyl-5-(2,2,2-trifluoro-1-(methoxy-d3)ethyl)-1H-indazol-3-yl)amino)-N-(methyl-d3)pyridazine-3-carboxamide]	–	–	0.07	0.327	–
COC(=O)c1cnc(NC(=O)C2CC2)cc1Nc1nn(C)c2ccc(C(OC)C(C)OC)c(OC)c12 (stereo not drawn) [Example 165, Methyl 6-(cyclopropanecarboxamido)-4-((5-(1,2-dimethoxypropyl)-4-methoxy-1-methyl-1H-indazol-3-yl)amino)nicotinate]	–	–	2.71	281	–
COC(=O)c1cnc(NC(=O)C2CC2)cc1Nc1nn(C)c2ccc(CO)c(OC)c12 [Example 164, Methyl 6-(cyclopropanecarboxamido)-4-((5-(hydroxymethyl)-4-methoxy-1-methyl-1H-indazol-3-yl)amino)nicotinate]	–	–	0.481	50.1	–
COC(=O)c1cnc2cc1Nc1nn(c3ccc(C(OC)C(F)(F)F)c(OC)c13)CCOCc1nc(ccc1F)N2 (stereo not drawn) [Example 179, Methyl 12-fluoro-23-methoxy-22-(2,2,2-trifluoro-1-methoxyethyl)-15-oxa-2,6,8,18,25,26-hexaazapentacyclo[16.6.1.1^{3,7}.1^{9,13}.0^{19,24}]heptacosa-1(25),3(27),4,6,9,11,13(26),19,21,23-decaene-4-carboxylate]	–	–	0.481	30.9	–
CCC(F)(F)c1cnc(NC(=O)C2CC2)cc1Nc1nccc2c1N(C)C(C)c1nn(C)nc1-2 (stereo not drawn) [Example 178, N-(5-(1,1-Difluoropropyl)-4-((2,4,5-trimethyl-4,5-dihydro-2H-[1,2,3]triazolo[4,5-c][1,7]naphthyridin-6-yl)amino)pyridin-2-yl)cyclopropanecarboxamide]	–	–	3.16	35	–
[2H]C([2H])([2H])Oc1c([C@H](OC)C(F)(F)F)ccc2c1c(Nc1cc(NC(=O)C3CC3)ncc1C(=O)OC)nn2C [Example 120A, Methyl (S)-6-(cyclopropanecarboxamido)-4-((4-(methoxy-d3)-1-methyl-5-(2,2,2-trifluoro-1-methoxyethyl)-1H-indazol-3-yl)amino)nicotinate]	–	–	0.089	2.71	–
COC(=O)c1cnc(NC(=O)C2CC2)cc1Nc1cccc(-c2cnn(C)n2)c1OC [Example 63, Methyl 6-(cyclopropanecarboxamido)-4-((2-methoxy-3-(2-methyl-2H-1,2,3-triazol-4-yl)phenyl)amino)nicotinate]	–	–	0.285	48.4	–
[2H]C([2H])([2H])CC(=O)c1cnc(NC(=O)C2CC2)cc1Nc1nn(C)c2ccc(C(OC)C3(F)CC3)c(OC)c12 (stereo not drawn) [Example 150, N-(4-((5-((1-fluorocyclopropyl)(methoxy)methyl)-4-methoxy-1-methyl-1H-indazol-3-yl)amino)-5-(propanoyl-3,3,3-d3)pyridin-2-yl)cyclopropanecarboxamide]	–	–	0.154	32.7	–
[2H]C([2H])([2H])CC(=O)c1cnc(NC(=O)C2CC2)cc1Nc1nn(C)c2ccc(COC)c(OC)c12 [Example 132, N-(4-((4-methoxy-5-(methoxymethyl)-1-methyl-1H-indazol-3-yl)amino)-5-(propanoyl-3,3,3-d3)pyridin-2-yl)cyclopropanecarboxamide]	–	–	0.174	25.9	–
COC(=O)c1cnc(NC(=O)[C@@H]2C[C@@H]2F)cc1Nc1nn(C)c2ccc(C(OC)C(C)(F)F)c(OC)c12 (stereo partly drawn) [Example 116, Methyl 4-((5-(2,2-difluoro-1-methoxypropyl)-4-methoxy-1-methyl-1H-indazol-3-yl)amino)-6-((1S,2S)-2-fluorocyclopropane-1-carboxamido)nicotinate]	–	–	0.188	4.65	–
COC(=O)c1cnc(NC(=O)C2CC2)cc1Nc1nn(C)c2ccc(C(O)C3(F)CC3)c(OC)c12 (stereo not drawn) [Example 128, Methyl 6-(cyclopropanecarboxamido)-4-((5-((1-fluorocyclopropyl)(hydroxy)methyl)-4-methoxy-1-methyl-1H-indazol-3-yl)amino)nicotinate]	–	–	0.26	17.3	–
COC(=O)c1cnc(NC(=O)C2CC2)cc1Nc1nn(C)c2ccc(CC#N)c(OC)c12 [Example 145, Methyl 4-((5-(cyanomethyl)-4-methoxy-1-methyl-1H-indazol-3-yl)amino)-6-(cyclopropanecarboxamido)nicotinate]	–	–	0.151	15.2	–
COC(=O)c1cnc(Nc2ccc(F)cn2)cc1Nc1nn(C)c2ccc(C(OC)C(F)(F)F)c(OC)c12 (stereo not drawn) [Example 142, Methyl 6-((5-fluoropyridin-2-yl)amino)-4-((4-methoxy-1-methyl-5-(2,2,2-trifluoro-1-methoxyethyl)-1H-indazol-3-yl)amino)nicotinate]	–	–	0.185	12	–
[2H]C([2H])([2H])NC(=O)c1cnc(NC(=O)C2CC2)cc1Nc1nn(C)c2ccc([C@@H](OC)C(F)(F)F)c(OC)c12 [Example 46B, (R)-6-(cyclopropanecarboxamido)-4-((4-methoxy-1-methyl-5-(2,2,2-trifluoro-1-methoxyethyl)-1H-indazol-3-yl)amino)-N-(methyl-d3)nicotinamide]	–	–	0.18	11.2	–
COC(=O)c1cnc(NC(=O)C2CC2)cc1Nc1nn(C)c2ccc(C(OC)C3CC3)c(OC)c12 (stereo not drawn) [Example 114, Methyl 6-(cyclopropanecarboxamido)-4-((5-(cyclopropyl(methoxy)methyl)-4-methoxy-1-methyl-1H-indazol-3-yl)amino)nicotinate]	–	–	0.209	21.9	–
COC(=O)c1cnc(NC(=O)C2CC2)cc1Nc1nn(C)c2ccc(C(OC)C(C)(F)F)c(OC)c12 (stereo not drawn) [Example 115, Methyl 6-(cyclopropanecarboxamido)-4-((5-(2,2-difluoro-1-methoxypropyl)-4-methoxy-1-methyl-1H-indazol-3-yl)amino)nicotinate]	–	–	0.182	5.58	–
